Consider one compound from patent EP0366632A1, “Alternative energy substrates” (priority 1988, dated 1990).

Several values for one entry are separate records, joined by “and”; a condition that tells them apart may be missing. Equal values may be shown once.

A short description of data set [1]: Cold storage of fat emulsion (Intralipid) with ester admixture: visual inspection, pH, mean particle size. Format: physicochemical. The settings on record: for Mean particle size, X / pH / Mean particle size (single readings, Coulter nanosizer): Example 32: Intralipid 20%; for pH: after 5 day storage; for Mean particle size (single readings, Coulter nanosizer): listed as 5-methyl-3-oxo-pentanoic acid ethyl ester; for emulsion quality, daily visual inspection: Example 32: mother concentrate in Intralipid 20%; for emulsion quality, daily visual inspection / emulsion stability, daily visual inspection: +5°C, 5 days. On the procedure:
A so-called mother concentrate was prepared by dissolving 6 g of egg-yolk phospholipids in 40 g of 4-methyl-3-oxo-pentanoic acid ethyl ester at +60°C, while stirring. 34 g of 99% ethyl alcohol were then added to the solution, whereafter the solution was cooled to room temperature and dispensed into 20 ml glass flasks. Nitrogen gas was then bubbled through the liquid and the flasks then stoppered and capsuled. The bottles were then autoclaved at +120°C and at 118 kPa for 20 minutes. A 10% fat emulsion for parenteral nutrient administration (Intralipid^R retailed by KabiVitrum AB, Stockholm) was added to the preparation under strict asceptic conditions, to a 4-methyl-3-oxo-pentanoic acid ethyl ester concentration of 0.2, 1 and 3% respectively. The emulsion was shaken for 5 minutes in a shaking machine and then placed in a cold environment (+5°C). The emulsion was thereafter observed over a 5 day period, wherewith a daily inspection was carried out to assess the formation of oil droplets, creaming or oil separation. The assessment was made in comparison with a known emulsion for parenteral use (Intralipid^R 10%). […] Subsequent to 5 days storage, an analysis was made of the pH and mean particle size in a Coulter nanosizer. The following values were obtained:
(§1) A so-called mother concentrate produced by dissolving 6 g egg-yolk phospholipids in 40 g of 4-methyl-3-oxo-pentanoic acid-ethyl ester at +60°C, while stirring the system. 34 g of 99% ethyl alcohol were then added to the solution, whereafter the solution was cooled to room temperature and dispensed into 20 ml glass flasks. Nitrogen gas was perculated through the contents of the flasks, and the flasks subsequently stoppered and fitted with capsules. The flasks were then autoclaved at 120°C and 118 kPa over a period of 20 minutes. This preparation was added to a 20% fat emulsion (Intralipid^R) under strict aseptic conditions, such that the concentation of 4-methyl-3-oxo-pentanoic acid ethyl ester was 0.2 and 1 and 3% respectively. The emulsion was shaken for 5 minutes in a shaker and then placed in a cold environment (5°C). The emulsion was inspected over a period of 5 calender days, wherewith a visual inspection was carried out daily in order to ascertain the occurrence of any oil droplets that may form, creaming or oil separation. The assay was effected by comparison with a known emulsion for parenteral use (Intralipid^R 20%). […] The pH of the emulsion was measured after a 5 day storage period. The mean particle size was measured in a Coulter^R nanosizer. The following values were obtained:
as §1, with “prepara tion” for “preparation”, “10%” for “20%”, “10%).” for “20%).”, “obtained: […]” for “obtained:”

The subject of data set [2] is VSV (vesicular stomatitis virus). Format: cell-based. The settings on record: 0.1% in tissue cultures; A549, GMK and fibroblasts; Figure 2.
Another data set is described as follows: Energy density. The class given is physicochemical.

For `CCOC(=O)CC(=O)CC(C)C` [5-methyl-3-oxo-hexanoic acid ethyl ester], the entries for the “Mean particle size, X” value in data set [1] (0.2% admix), in data set [1] (1% admix) and in data set [1] (3% admix) were 322, 319 and 324, respectively. Moreover, the pH in data set [1] (0.2% admix) worked out at 7.4; in data set [1] (1% admix), 7.0; in data set [1] (3% admix), 6.7. The “Mean particle size (single readings, Coulter nanosizer)” value in data set [1] (0.2% admix) is 317 and 321 and 324; in data set [1] (1% admix) it was 317 and 324 and 321; in data set [1] (3% admix) it was 324 and 328 and 321. Besides, the figures for the “emulsion quality, daily visual inspection” value in data set [1] (0.2% addition), in data set [1] (1% addition) and in data set [1] (3-percent mixture) were “No change in quality”, “No change in quality” and “fully acceptable over the first 4 days”, respectively. For the same compound, the “emulsion stability, daily visual inspection” value in data set [1] (Example 33: pure ester in 10% fat emulsion (Intralipid), 0.2%) is on record as “stable over the whole of the test period”; in data set [1] (Example 33: pure ester in 10% fat emulsion, 1%), “stable over the whole of the test period”; in data set [1] (Example 33: pure ester in 10% fat emulsion, 3%) it was “stable over the whole of the test period”; in data set [1] (Example 33: pure ester in 10% fat emulsion, 5%), “stable over the first 2 days”; in data set [1] (Example 33: pure ester in 20 percent emulsion, 0.2%), “remained stable over the whole of the test period”; in data set [1] (Example 33: pure ester in 20 percent emulsion, 1%), “remained stable over the whole of the test period”. Also, in data set [1] (Example 33: pure ester in 20 percent emulsion, 3%), the “emulsion stability, daily visual inspection” value was “remained stable for 1 day”. For the same compound, in data set [2], the “suppression of replication of VSV” value was “replication can be inhibited”. Also, the energy density in the data set “Energy density” is recorded as 29.24 kJ/g.
